“Also recorded” adds a separate entry of the source. Ends that are not written are not given here.
Legend:
P. falciparum [1] = assay: Overnight P. falciparum infection assay with C terminal G protein peptides, new ring stage infection scored by Giemsa staining; format: cell-based, Plasmodium falciparum; settings: for effect on erythrocytic infection / new ring formation (words): 500 μM peptide in culture; for % Inhibition of Infection: 500 uM peptide, overnight, compared to mock treated cultures, standard error 10%
Experimental: FIG. 2. Effects of FITC-Gs peptide and its FITC-Gs-scrambled peptide on erythrocytic infection. Assays containing 500 μM of indicated peptides, their FITC-derived counterparts or solvent alone were added to a standard infection assay (see Table 1). FIG. 3. Cells taken from a standard infection assay incubated with 500 μM FITC-Gs peptide (A) or FITC-Gs scrambled peptide (B) were fixed in formaldehyde, and without permeabilization subjected to an indirect immunofluorescence assay with anti-MSP1 antibody (red, to detect extracellular parasites) and stained with DAPI (blue, to visualize nuclei). Samples were imaged by digitized fluorescence microscopy (FITC signal is green). Infection assays were set up using synchronized cultures of P. falciparum with a starting parasitemia of 6% schizonts. Cultures were incubated with 500 uM of the indicated peptides (Gs, Gs-scrambled, Gq or Gi-reversed) or mock treated (with no peptide) overnight and subsequently scored for new ring stage infection by Giemsa staining of thin blood smears. Infection is shown compared to that of mock treated cultures (containing no peptide).

P. falciparum [2] = assay: Dose dependent effect of Gs peptide on ring-infected P. falciparum cultures (development to trophozoites and next generation rings); format: cell-based, Plasmodium falciparum; settings: for effect on parasite growth in culture / new ring formation: extracellular 100-500 μM, Tables I and II
Experimental: Table II illustrates the dose dependent effect of Gs peptide on inhibition of P. falciparum infection. In this study, ring-infected cultures at 1% parasitemia were incubated with the indicated concentrations of Gs peptides under standard culture conditions and monitored for development to the subsequent trophozoite stage as well as the next generation of ring stage parasites. Parasitemias were detected by Giemsa staining of thin blood smears. Standard error: 10%.

P. falciparum [3] = assay: Preincubation (4 h) of red cells or schizonts with Gs peptide, wash, then overnight infection assay; format: cell-based, Plasmodium falciparum; settings: 500 μM, 4 h preincubation of red cells or late stage segmenters/schizonts, FIG. 1; listed as Gs peptide
Experimental: FIG. 1. Effects of preincubating (for 4 h) red cells or schizonts with Gs peptide on malarial infection. Uninfected red cells or schizonts were resuspended at 2×10^8 cells/ml in RPMI1640 and incubated with 500 μM Gs peptide or mock treated for 4 h at 37° C. The cells were subsequently recovered by centrifugation and washing in peptide-free medium. Washed cells were then subjected to an overnight infection assay (using 4% schizonts to infect the culture) in the absence of peptides.

P. berghei = assay: Standard 4 day Peters assay, P. berghei in mice, drug intraperitoneally; format: in vivo; settings: for inhibition of parasitemia / P. berghei infection in vivo: mice, day 4 parasitemia
Experimental: (§1) FIG. 11. […] In vivo mouse experiments were done with P. berghei using a standard 4 day Peters assay (W. Peters, B. L. Robinson, Ann Trop Med Parasitol 78, 561 (1984)). P. berghei and the racemic form of propranolol were administered intraperitoneally; five mice were used per data point. In IC50 studies, 5 data points were taken. Mice were given 5×10^7 parasites on day 0, and indicated concentrations of drug twice a day on days 0-3. Tail bleeds were carried out on day 4 to ascertain parasitemia, after which the animals were sacrificed.
as §1, with “12.” for “11.”, “ICI 181,551” for “the racemic form of propranolol”
(§2) In vivo mouse experiments were done with P. berghei using a standard 4 day Peters assay (W. Peters, B. L. Robinson, Ann Trop Med Parasitol 78, 561 (1984)). P. berghei and β2-adrenergic receptor antagonists were administered intraperitoneally; five mice were used per data point. In IC50 studies, 5 data points were taken. Mice were given 5×10^7 parasites on day 0, and indicated concentrations of drug twice a day on days 0-3. Tail bleeds were carried out on day 4 to ascertain parasitemia, after which the animals were sacrificed.
as §2, with “assay.” for “assay (W. Peters, B. L. Robinson, Ann Trop Med Parasitol 78, 561 (1984)).”, “ICI 181,551” for “β2-adrenergic receptor antagonists”
as §2, with “assay.” for “assay (W. Peters, B. L. Robinson, Ann Trop Med Parasitol 78, 561 (1984)).”, “the indicated” for “β2-adrenergic receptor”, “point.” for “point. In IC50 studies, 5 data points were taken.”

[4] = target: host Gs coupled receptors of the red cell; assay: cell-based or functional assay
[5] = system: P. falciparum (strain 3D7); assay: In vitro erythrocytic infection assay with Gs receptor agonists/antagonists, new ring stage infection after 4-6 h; format: cell-based, Plasmodium falciparum; settings: for blocking the stimulation of infection by P. falciparum in vitro: 10 μM isoproterenol or antagonist, 4-6 hours, FIG. 10
Experimental: Effects of β-adrenergic receptor agonist (isoproterenol) or antagonist (propranolol) on erythrocyte infection by P. falciparum. Cultures containing 2×10^8 red cells and 2.5×10^6 synchronized segmenters were incubated in 1 ml of 10% medium (10% human serum with RPMI) with the indicated agonist, antagonist, agonist+antagonist, or mock treated (solvent alone: 1 μl) for 6 h.
Effects of adenosine receptor agonist (NECA) and antagonist (8-SPT) on infection of erythrocytes by P. falciparum. Cultures were set up as described in FIG. 5, indicated concentrations of NECA, 8-SPT, both or solvent alone were added and infection was scored after 6 h as described.
Effects of (β-adrenergic and adenosine receptor) agonists and antagonists singly and in combination on in vitro erythrocytic infection by P. falciparum. In vitro infection assays were done with synchronized cultures of P. falciparum (strain 3D7) using standard culture conditions (K. Haldar, M. A. J. Ferguson, G. A. M. Cross, J Biol Chem 260, 4969 (1985)). A starting parasitemia of 2.5% schizonts (44-48 h in development) in 20 μl of red blood cells with 1 ml of 10% human serum in RPMI1640 was used. The cultures were incubated for 4-6 hours in the presence of Gαs protein receptor agonist or antagonist, or vehicle control. All detectable schizonts ruptured, and new ring stage infection was scored by Giemsa staining of thin blood smears.
In vitro effect of various β-adrenergic antagonists on inhibition of P. falciparum infection in red blood cells treated with isoproterenol. In vitro infection assays were done with synchronized cultures of P. falciparum (strain 3D7) using standard culture conditions (K. Haldar, M. A. J. Ferguson, G. A. M. Cross, J Biol Chem 260, 4969 (1985)). A starting parasitemia of 2.5% schizonts (44-48 h in development) in 20 μl of red blood cells with 1 ml of 10% human serum in RPMI1640 was used. The cultures were incubated for 4-6 hours in the presence of 10 μM beta-adrenergic receptor agonists or antagonists, or vehicle control. All detectable schizonts ruptured, and new ring stage infection was scored by Giemsa staining of thin blood smears.
In vitro infection assays were done with synchronized cultures of P. falciparum (strain 3D7) using standard culture conditions. A starting parasitemia of 2.5% schizonts (44-48 h in development) in 20 μl of red blood cells with 1 ml of 10% human serum in RPMI1640 was used. The cultures were incubated for 4-6 hours in the presence of 10 μM isoproterenol or antagonist, or vehicle control. All detectable schizonts ruptured, and new ring stage infection was scored by Giemsa staining of thin blood smears.

In the case of “QRMHLRQYELL (SEQ ID NO:1) (also: acetylated) [Gs]”, the “effect on erythrocytic infection / new ring formation (words)” value (P. falciparum [1]) is reported as “marked inhibition of new rings; also recorded: significantly reduced erythrocytic infection”, the “% Inhibition of Infection” value (P. falciparum [1]) is reported as 87% and the “% Ring” value (P. falciparum [2]; Day 1, 5 μM Gs Peptide) is reported as 1.0%. The “% Ring” value (P. falciparum [2]; Day 1, 20 μM Gs Peptide) was 1.0%, the “% Ring” value (P. falciparum [2]; Day 1, 50 μM Gs Peptide) was 1.0% and the “% Ring” value (P. falciparum [2]; Day 1, 100 μM Gs Peptide) was 1.0%. The “% Ring” value (P. falciparum [2]; Day 1, 200 μM Gs Peptide) was 1.0%, the “% Ring” value (P. falciparum [2]; Day 1, 500 μM Gs Peptide) was 1.0% and the “% Troph” value (P. falciparum [2]; Day 2, 5 μM Gs Peptide) was 0.9%. The “% Troph” value (P. falciparum [2]; Day 2, 20 μM Gs Peptide) was 1.0%, the “% Troph” value (P. falciparum [2]; Day 2, 50 μM Gs Peptide) was 0.9% and the “% Troph” value (P. falciparum [2]; Day 2, 100 μM Gs Peptide) was 0.8%. For the same compound, the “% Troph” value (P. falciparum [2]; Day 2, 200 μM Gs Peptide) was 1.0%, the “% Troph” value (P. falciparum [2]; Day 2, 500 μM Gs Peptide) was 0.9% and the “% Ring” value (P. falciparum [2]; Day 3, 5 μM Gs Peptide) was 3.8%. The “% Troph” value (P. falciparum [2]; Day 3, 5 μM Gs Peptide) was 0.6%, the “% Ring” value (P. falciparum [2]; Day 3, 20 μM Gs Peptide) was 2.7% and the “% Troph” value (P. falciparum [2]; Day 3, 20 μM Gs Peptide) was 0.6%. For the same compound, the “% Ring” value (P. falciparum [2]; Day 3, 50 μM Gs Peptide) was 1.9%, the “% Troph” value (P. falciparum [2]; Day 3, 50 μM Gs Peptide) was 0.3% and the “% Ring” value (P. falciparum [2]; Day 3, 100 μM Gs Peptide) was 1.4%. For the same compound, the “% Troph” value (P. falciparum [2]; Day 3, 100 μM Gs Peptide) was 0.6%, the “% Ring” value (P. falciparum [2]; Day 3, 200 μM Gs Peptide) was 0.6% and the “% Troph” value (P. falciparum [2]; Day 3, 200 μM Gs Peptide) was 0.5%. For the same compound, the “% Ring” value (P. falciparum [2]; Day 3, 500 μM Gs Peptide) was 0.4%, the “% Troph” value (P. falciparum [2]; Day 3, 500 μM Gs Peptide) was 0.5% and the “effect on parasite growth in culture / new ring formation” value (P. falciparum [2]; listed as Gs peptide) was “marked effect on new ring formation”. The “effect on parasite growth in culture / new ring formation” value (P. falciparum [2]; listed as Gαs peptide) was “inhibit parasite growth in culture, in a dose dependent manner”, the “extracellular concentrations required for significant inhibition” value (P. falciparum [2]; new ring formation) was over 50 µM and the “effect of preincubation with peptide on infection” value (P. falciparum [3]) was “no detrimental effect on infection; also recorded: failed to block infection”.
“ELRLQHYMQLR (SEQ ID NO:2) (synthetic scrambled G s peptide Gscb1) [Gs-scrambled]” was tested, and the “effect on erythrocytic infection / new ring formation (words)” value (P. falciparum [1]) was “does not block infection”, the “effect on erythrocytic infection / new ring formation (words)” value (P. falciparum [1]; listed as Gscb1) was “virtually no effect” and the “% Inhibition of Infection” value (P. falciparum [1]) was 4%.
`Cc1ccc(OCC(O)C(C)NC(C)C)c2c1CCC2` (centres unmarked) [ICI 181,551] was tested, and the “inhibition of parasitemia / P. berghei infection in vivo” value (P. berghei) was “effective at inhibiting parasitemia in vivo”.
For “Gαs peptide (C terminal peptide of the heterotrimeric G protein Gs)”, the % Inhibition of Infection (P. falciparum erythrocytic infection, 500 uM peptide, overnight) [4] was 87%, the Day 3 % Ring (new ring stage parasitemia) at 5 µM Gs peptide; 5.2 at 0 µM [4] was 3.8% and the Day 3 % Ring (new ring stage parasitemia) at 20 µM Gs peptide; 5.2 at 0 µM [4] was 2.7%. For the same compound, the Day 3 % Ring (new ring stage parasitemia) at 50 µM Gs peptide; 5.2 at 0 µM [4] was 1.9%, the Day 3 % Ring (new ring stage parasitemia) at 100 µM Gs peptide; 5.2 at 0 µM [4] was 1.4% and the Day 3 % Ring (new ring stage parasitemia) at 200 µM Gs peptide; 5.2 at 0 µM [4] was 0.6%. For the same compound, the Day 3 % Ring (new ring stage parasitemia) at 500 µM Gs peptide; 5.2 at 0 µM [4] was 0.4%.
In the case of `CC(C)NCC(O)COc1ccc(CC(N)=O)cc1` (centres unmarked) [altenolol, 4-[2-Hydroxy-3-[(1-methylethyl)amino]-propoxy]benzeneacetamide], the “blocking the stimulation of infection by P. falciparum in vitro” value [5] is reported as “almost as effective as propranolol at blocking the stimulation of infection”.
“LQLNLKEYNLV (SEQ ID NO: 3) (synthetic C terminal peptide of Gq)” was tested, and the “effect on erythrocytic infection / new ring formation (words)” value (P. falciparum [1]) was “little effect on plasmodial growth; also recorded: no significant effect on infection” and the “% Inhibition of Infection” value (P. falciparum [1]) was 20%.
In the case of “NGIKCLFNDKL (SEQ ID NO:4) (synthetic reverse C terminal peptide of Gri) [Gi-reverse, reverse of C terminal peptide of Gi]”, the “effect on erythrocytic infection / new ring formation (words)” value (P. falciparum [1]; listed as Gi) is reported as “no significant effect on infection”, the “effect on erythrocytic infection / new ring formation (words)” value (P. falciparum [1]; listed as Gri) is reported as “little effect on plasmodial growth” and the “% Inhibition of Infection” value (P. falciparum [1]) is reported as 6%.
In the case of `CC(C)NCC(O)COc1cccc2ccccc12` (racemic) [racemic propranolol], the “blocking the stimulation of infection by P. falciparum in vitro” value [5] is reported as “inhibit agonist-stimulated infection of P. falciparum in vitro”, the IC90 (P. berghei; P. berghei infections in mice, twice a day days 0-3, FIG. 11) is reported as 85 mg/kg/day and the “inhibition of parasitemia / P. berghei infection in vivo” value (P. berghei) is reported as “block P. berghei infections in mice”.
In the case of `CC(C)NC[C@@H](O)COc1cccc2ccccc12` (single isomer, unassigned) [inactive isomer of propranolol], the “P. falciparum growth in culture” value [5] is reported as “no effect” and the “inhibition of parasitemia / P. berghei infection in vivo” value (P. berghei) is reported as “no effect”.
In the case of `COc1ccc(OC)c(C(O)C(C)NC(C)(C)C)c1` (centres unmarked) [butoxamine], the “blocking the stimulation of infection by P. falciparum in vitro” value [5] is reported as “lower inhibitory effect”.

— patent publication US20040220198A1, “Methods for treating malaria by modulation of G protein function” (priority 2002, published 2004)
